Test results reported in patent US20240308996A1, “PYRIDOPYRIDINES AND DERIVATIVES THEREOF AS SELECTIVE KINASE INHIBITORS” (University of Sharjah, priority 2023, published 2024).

Legend:
Assay type in all cases: cell-based
COLO 205 = assay: NCI-60 cell line panel: COLO 205; design: TGI: unit not given here; details: Colon Cancer
Procedure: (§1) It was carried out at the NCI, Bethesda, MD, USA, utilizing their standard protocol.

MCF7 = assay: NCI-60 cell line panel: MCF7; details: Breast Cancer
Procedure: as §1

SNB-19 = assay: NCI-60 cell line panel: SNB-19; details: CNS Cancer
Procedure: as §1

CCRF-CEM = assay: NCI-60 cell line panel: CCRF-CEM; details: Leukemia
Procedure: as §1

SF-539 = assay: NCI-60 cell line panel: SF-539; details: CNS Cancer
Procedure: as §1

A549/ATCC = assay: NCI-60 cell line panel: A549/ATCC; details: Non-Small Cell Lung Cancer
Procedure: as §1

BT-549 = assay: NCI-60 cell line panel: BT-549; details: Breast Cancer
Procedure: as §1

HepG2 = assay: MTT assay, HepG2 HCC cell line; details: Homo sapiens, 48 h, mean of triplicate assays ± SEM
Procedure: Two HCC cell lines (Hep3B and HepG2) were used for screening the antiproliferative activity of the synthesized compounds. The cell lines were obtained from the European Collection of Cell Cultures (ECACC, UK) and maintained in Dulbecco's Modified Eagle Medium (DMEM: Sigma-Aldrich) supplemented with 10% fetal bovine serum (FBS) and 1% penicillin/streptomycin and incubated at 37° C. in a 5% CO2 air atmosphere. In addition, WI-38 normal cell line was used to investigate the safety of these compounds.
MTT assay was conducted to calculate the IC50 of the compounds following the reported procedure . Briefly, the cells were seeded in 96-well tissue culture plates with a density of 5×10^4 cells/well and incubated overnight at 37° C. in a 5% CO2 air atmosphere. […] DMSO was used as a negative control. After 48 h, the media were aspirated, and replaced with media containing 0.5 mg/mL of MTT tetrazolium dye (Sigma-Aldrich) for 2 h at 37° C. Finally, the media were removed and 200 μL of DMSO was added to solubilize the formazan crystals. Absorbance was then measured at 570 nm using Varioskan Flash multimode plate reader (Thermo Scientific, Massachusetts, USA).

M14 = assay: NCI-60 cell line panel: M14; details: Melanoma
Procedure: as §1

SF-295 = assay: NCI-60 cell line panel: SF-295; details: CNS Cancer
Procedure: as §1

HL-60(TB) = assay: NCI-60 cell line panel: HL-60(TB); design: TGI: unit not given here; details: Leukemia
Procedure: as §1

HCT-116 = assay: NCI-60 cell line panel: HCT-116; details: Colon Cancer
Procedure: as §1

OVCAR-5 = assay: NCI-60 cell line panel: OVCAR-5; details: Ovarian Cancer
Procedure: as §1

IGROV1 = assay: NCI-60 cell line panel: IGROV1
Procedure: as §1

SK-MEL-28 = assay: NCI-60 cell line panel: SK-MEL-28; details: Melanoma
Procedure: as §1

U251 = assay: NCI-60 cell line panel: U251; design: TGI: unit not given here
Procedure: as §1

RXF 393 = assay: NCI-60 cell line panel: RXF 393; details: Renal Cancer
Procedure: as §1

HS 578T = assay: NCI-60 cell line panel: HS 578T
Procedure: as §1

MOLT-4 = assay: NCI-60 cell line panel: MOLT-4; design: TGI: unit not given here; details: Leukemia
Procedure: as §1

NCI-H226 = assay: NCI-60 cell line panel: NCI-H226; details: Non-Small Cell Lung Cancer
Procedure: as §1

OVCAR-3 = assay: NCI-60 cell line panel: OVCAR-3; details: Ovarian Cancer
Procedure: as §1

SW-620 = assay: NCI-60 cell line panel: SW-620; details: Colon Cancer
Procedure: as §1

UO-31 = assay: NCI-60 cell line panel: UO-31; design: TGI: unit not given here; details: Renal Cancer
Procedure: as §1

SK-MEL-2 = assay: NCI-60 cell line panel: SK-MEL-2; design: TGI: unit not given here; details: Melanoma
Procedure: as §1

KM12 = assay: NCI-60 cell line panel: KM12; details: Colon Cancer
Procedure: as §1

MDA-MB-231/ATCC = assay: NCI-60 cell line panel: MDA-MB-231/ATCC; details: Breast Cancer
Procedure: as §1

HCC-2998 = assay: NCI-60 cell line panel: HCC-2998; details: Colon Cancer
Procedure: as §1

786-0 = assay: NCI-60 cell line panel: 786-0; details: Renal Cancer
Procedure: as §1

RPMI-8226 = assay: NCI-60 cell line panel: RPMI-8226; details: Leukemia
Procedure: as §1

SR = assay: NCI-60 cell line panel: SR; details: Leukemia
Procedure: as §1

NCI-H23 = assay: NCI-60 cell line panel: NCI-H23; details: Non-Small Cell Lung Cancer
Procedure: as §1

OVCAR-4 = assay: NCI-60 cell line panel: OVCAR-4; details: Ovarian Cancer
Procedure: as §1

CCN1CCN(c2ccc(NC(=O)Nc3ccc(-c4cc(C(=O)NC(C)C)c5ncccc5n4)cc3)cc2C(F)(F)F)CC1 [Compound 13f, 2-(4-(3-(4-(4-Ethylpiperazin-1-yl)-3-(trifluoromethyl)phenyl)ureido)phenyl)-N-isopropyl-1,5-naphthyridine-4-carboxamide]
TGI (COLO 205; total growth inhibition): 2.71 | IC50 (COLO 205; Homo sapiens): 0.93 µM | TGI (MCF7; total growth inhibition): 1.5 µM | IC50 (MCF7; Homo sapiens): 0.63 µM | TGI (SNB-19; total growth inhibition): 9.12 µM | IC50 (SNB-19; Homo sapiens): 4.24 µM | IC50 (CCRF-CEM; Homo sapiens): 1.01 µM | TGI (CCRF-CEM; total growth inhibition): 3.1 µM | TGI (SF-539; total growth inhibition): 1.02 µM | IC50 (SF-539; Homo sapiens): 0.53 µM | IC50 (A549/ATCC; Homo sapiens): 1.14 µM | TGI (A549/ATCC; total growth inhibition): 5.77 µM | TGI (BT-549; total growth inhibition): 9.57 µM | IC50 (BT-549; Homo sapiens): 4.83 µM | IC50 (HepG2): 0.46 ± 0.06 µM | IC50 (M14; Homo sapiens): 0.72 µM | TGI (M14; total growth inhibition): 1.9 µM | TGI (SF-295; total growth inhibition, unit assumed): 1.14 µM | IC50 (SF-295; Homo sapiens): 0.58 µM | IC50 (HL-60(TB); Homo sapiens): 1.07 µM | TGI (HL-60(TB); total growth inhibition): 5.89 | TGI (HCT-116; total growth inhibition): 1.3 µM | IC50 (HCT-116; Homo sapiens): 0.64 µM | IC50 (OVCAR-5; Homo sapiens): 1.6 µM | TGI (OVCAR-5; total growth inhibition): 6.09 µM | IC50 (IGROV1; Homo sapiens, IGROV-1, Ovarian Cancer): 1.42 µM | TGI (IGROV1; Ovarian Cancer, total growth inhibition): 5.11 µM | IC50 (SK-MEL-28; Homo sapiens): 0.75 µM | TGI (SK-MEL-28; total growth inhibition): 1.85 µM | TGI (U251; CNS Cancer, total growth inhibition): 4.82 | IC50 (U251; Homo sapiens, U-251, CNS Cancer): 1.24 µM | IC50 (RXF 393; Homo sapiens): 0.65 µM | TGI (RXF 393; total growth inhibition): 1.73 µM | TGI (HS 578T; Breast Cancer, HS 578T, total growth inhibition): 3.45 µM | IC50 (HS 578T; Homo sapiens, Hs-578T): 0.88 µM | IC50 (MOLT-4; Homo sapiens): 1.11 µM | TGI (MOLT-4; total growth inhibition): 30.60 | IC50 (NCI-H226; Homo sapiens): 5.02 µM | TGI (NCI-H226; total growth inhibition): 12.5 µM | IC50 (OVCAR-3; Homo sapiens): 0.64 µM | TGI (OVCAR-3; total growth inhibition): 1.36 µM | TGI (SW-620; total growth inhibition): 1.26 µM | IC50 (SW-620; Homo sapiens): 0.64 µM | IC50 (UO-31; Homo sapiens): 2.18 µM | TGI (UO-31; total growth inhibition): 6.81 | IC50 (SK-MEL-2; Homo sapiens): 4.82 µM | TGI (SK-MEL-2; total growth inhibition): 9.89 | TGI (KM12; total growth inhibition): 2.91 µM | IC50 (KM12; Homo sapiens): 1.01 µM | TGI (MDA-MB-231/ATCC; total growth inhibition): 1.18 µM | IC50 (MDA-MB-231/ATCC; Homo sapiens): 0.61 µM | TGI (HCC-2998; total growth inhibition): 5.09 µM | IC50 (HCC-2998; Homo sapiens): 1.44 µM | IC50 (786-0; Homo sapiens): 0.5 µM | TGI (786-0; total growth inhibition): 1.03 µM | IC50 (RPMI-8226; Homo sapiens): 1.04 µM | TGI (RPMI-8226; total growth inhibition): > 34.5 µM | IC50 (SR; Homo sapiens): 1.05 µM | TGI (SR; total growth inhibition): 12.1 µM | IC50 (NCI-H23; Homo sapiens): 2.05 µM | TGI (NCI-H23; total growth inhibition): 7.27 µM | IC50 (OVCAR-4; Homo sapiens): 0.88 µM | TGI (OVCAR-4; total growth inhibition, in µM (unit assumed)): 2.45
